Source: patent US20100104518A1, “CHEWING GUM, CONFECTION, AND OTHER ORAL DELIVERY VEHICLES CONTAINING A TRADITIONAL CHINESE MEDICINE OR EXTRACT THEREOF” (priority 2006, published 2010)

Columns and labels:
Format in all cases: cell-based
S. mutans [1] = test: Minimum Bactericidal Concentration (MBC) test of TCM extracts on oral bacteria; conditions: transfer from non-turbid tubes to fresh growth media, 48 hrs
Experimental: (§1) To evaluate the germ-kill efficacy, the dried crude TCM bark, stem, leaf or root was ground to powder. 10-50 grams of TCM powder was mixed with 100 ml of ethanol. The mixture was super-sonicated for 10-15 minutes to extract the TCM actives. The mixture was further transferred into a Mixxor solid-liquid phase extractor for extracting about 50 strokes. The solution was filtered by a 0.45 um Millipore filter. For determination of the TCM extract concentration, slight amount of TCM extract sample was accurately weighed on a pre-weighed aluminum weighing dish. It was dried in a 45° C. oven for 2 hours to evaporate ethanol. The sample dish was weighed again, and the concentration of TCM extract was determined as: conc.=(Dry weight−dish weight)/(wet weight−dish weight)×100%.
(§2) The germ-kill efficacy was determined by a Minimum Inhibitive Concentration test (MIC) and a Minimum Bactericidal Concentration (MBC) test. […] The solution was then serially diluted two-fold so that each subsequent dilution contained 50% of the compound concentration of the previous dilution while maintaining a constant level of nutrients for each dilution. These dilutions were inoculated with representative oral microorganisms, and incubated for 24 hrs at 37° C. For each TCM compound, the lowest dilution that was not turbid was registered as the MIC. The MBC was determined by transferring […] of liquid from no-turbid tubes to fresh growth media and incubated for 48 hrs. […] Table A & B list the MIC and MBC data on P. gingivalis, F. nucleatum and S. nutans.

P. gingivalis [2] = test: as above; conditions: transfer from non-turbid tubes to fresh growth media, 48 hrs
Experimental: as §1, §2

F. nucleatum [3] = test: as above; conditions: transfer from non-turbid tubes to fresh growth media, 48 hrs
Experimental: as §1, §2

S. mutans [4] = test: Minimum Inhibitive Concentration test (MIC) of TCM extracts on oral bacteria; conditions: ethanol TCM extract; Schaedler broth, two-fold dilutions, 24 hrs at 37° C.
Experimental: as §1, §2

P. gingivalis [5] = test: as above; conditions: ethanol TCM extract; Schaedler broth, two-fold dilutions, 24 hrs at 37° C.
Experimental: as §1, §2

F. nucleatum [6] = test: as above; conditions: ethanol TCM extract; Schaedler broth, two-fold dilutions, 24 hrs at 37° C.
Experimental: as §1, §2

MIC S. mutans (S. mutans [4]): 5 ng/mL
MIC P. gingivalis (P. gingivalis [5]): 2.5 ng/mL
MIC F. nucleatum (F. nucleatum [6]): 5 ng/mL
SMILES: N=C(NCCCCCCNC(=N)NC(=N)Nc1ccc(Cl)cc1)NC(=N)Nc1ccc(Cl)cc1.O=C(O)[C@H](O)[C@@H](O)[C@H](O)[C@H](O)CO.O=C(O)[C@H](O)[C@@H](O)[C@H](O)[C@H](O)CO [Chlorohexdine Gluconate]
MBC S. mutans (S. mutans [1]): 10 ng/mL
MBC P. gingivalis (P. gingivalis [2]): 5 ng/mL
MBC F. nucleatum (F. nucleatum [3]): 10 ng/mL
